Patent publication US12383556B2, “Methods of treating Sjögren's syndrome using a Bruton's tyrosine kinase inhibitor” (NOVARTIS AG, priority 2019, dated 2025)
Like-named read-outs stand apart in the source and are kept apart here.

What was measured:
[1] = system: FcεR1-mediated basophil activation; assay: Ex vivo basophil activation (CD63, CD203c), whole blood stimulated with anti-IgE, flow cytometry; format: in vivo, human
Experimental: In addition, ex vivo inhibition of basophil activation (monitored by surface expression of CD63 and CD203c) was used as distal mechanistic biomarker to test downstream PD effects of compound (I). To determine the PD effect of compound (I) on basophil activation, whole blood was stimulated ex vivo with anti-IgE. Degranulation was evaluated by percentage of CD63+ and CD203+ basophils by flow cytometry.

BTK = molecular target: T1, BTK (Homo sapiens, UniProt Q06187); assay: BTK occupancy in human whole blood (free and total BTK ELISA, MSD); format: in vivo
T1 construct: from tissue; host or cells: human whole blood (peripheral blood of dosed volunteers)
Experimental: Pharmacodynamics (PD) was characterized by assessing target occupancy and distal pathway inhibition. Measurements of BTK occupancy in human whole blood (derived as ratio of free and total BTK), served as direct marker of therapeutic target engagement.
Compound of formula (I) is an irreversible inhibitor of BTK, the extent and duration of BTK occupancy were determined.
The relationship between dose and pharmacodynamics was characterized by measurements of BTK occupancy in human blood (derived as ratio of free and total BTK), a direct marker of therapeutic target engagement. BTK occupancy was determined for single ascending doses ranging 0.5 to 400 mg, for q.d. multiple ascending doses ranging from of 10 mg and 400 mg, and for b.i.d. multiple ascending doses of 100 mg and 200 mg.

[2] = First-in-human Part 1 single ascending dose blood PK; format: in vivo
Experimental: A first-in-human study was conducted to assess the safety and tolerability, pharmacokinetics (PK) and pharmacodynamics (PD) of single and multiple doses of compound (I) both as once daily (qd) and twice daily (bid) oral administration in healthy volunteers and those with atopic diathesis, to support further clinical development of compound (I) in autoimmune diseases. This study also explored the effect of food intake.
First-in-human study in up to approximately 168 healthy volunteers (HVs), of which 64 (in Parts 2 & 4) had asymptomatic atopic diathesis. • Part 1 was a double-blind (subject and investigator blind, sponsor unblinded), placebo-controlled single ascending dose (SAD) escalation study of 10 cohorts (N=80) • Part 2 was a double-blind (subject and investigator blind, sponsor unblinded), placebo-controlled multiple ascending dose (MAD) (13 doses over 12 days) escalation study employing once daily dosing in 6 cohorts in healthy volunteers with asymptomatic atopic diathesis (N=48) • Part 3 was a single dose open-label crossover food effect study in 12 HVs • Part 4 was a double-blind (subject and investigator blind, sponsor unblinded), placebo-controlled multiple dose (25 doses over 12 days) study employing twice daily dosing in 2 cohorts of healthy volunteers with asymptomatic atopic diathesis (N=16)
In Part 1, subjects were admitted to the study site on Day −2 or −1 for baseline safety assessments and to confirm eligibility. Eligible subjects received a single dose of compound (I) or placebo under fasting conditions on Day 1. They were domiciled from Day −1 to the morning of Day 5 (96 hours post last drug administration).
Subjects were assigned to one of the following 10 cohorts. In each cohort, 8 subjects were randomized to either compound (I) or matching placebo in an overall 6:2 ratio. The first sub-cohort was randomized in a 1:1 ratio as one subject on compound (I) and one on matching placebo. The remaining 6 subjects per cohort, dosed after a 48-hour observation period of the initially dosed 2 subjects, were randomized in a 5:1 ratio. • Cohort 1: single oral dose of 0.5 mg compound (I) or matching placebo • Cohort 2: single oral dose of 1.5 mg compound (I) or matching placebo • Cohort 3: single oral dose of 5 mg compound (I) or matching placebo • Cohort 4: single oral dose of 15 mg compound (I) or matching placebo • Cohort 5: single oral dose of 30 mg compound (I) or matching placebo • Cohort 6: single oral dose of 60 mg compound (I) or matching placebo • Cohort 7: single oral dose of 100 mg compound (I) or matching placebo • Cohort 8: single oral dose of 200 mg compound (I) or matching placebo • Cohort 9: single oral dose of 400 mg compound (I) or matching placebo • Cohort 10: single oral dose of 600 mg compound (I) or matching placebo
Pharmacokinetic samples were obtained in blood and evaluated in all subjects at all dose levels. The samples from placebo subjects were not analyzed. The samples for PK assessments from subjects were collected at time points defined in the study. Compound (I) concentrations were determined in blood by a validated LC-MS/MS method.

[3] = Blood exposure of compound (I) after oral dose in rats; format: in vivo; details: female, rat, 1 mg/kg dose
Experimental: From the experimental data it was apparent that a short transient systemic exposure of compound (I) is sufficient to achieve full BTK occupancy in several tissues at low oral doses of 1-3 mg/kg. […] This very low and transient systemic exposure is consistent with the PK/PD model typical of irreversible inhibitors.

[4] = after single dose, peripheral blood

T1 sequence (Q06187 whole entry): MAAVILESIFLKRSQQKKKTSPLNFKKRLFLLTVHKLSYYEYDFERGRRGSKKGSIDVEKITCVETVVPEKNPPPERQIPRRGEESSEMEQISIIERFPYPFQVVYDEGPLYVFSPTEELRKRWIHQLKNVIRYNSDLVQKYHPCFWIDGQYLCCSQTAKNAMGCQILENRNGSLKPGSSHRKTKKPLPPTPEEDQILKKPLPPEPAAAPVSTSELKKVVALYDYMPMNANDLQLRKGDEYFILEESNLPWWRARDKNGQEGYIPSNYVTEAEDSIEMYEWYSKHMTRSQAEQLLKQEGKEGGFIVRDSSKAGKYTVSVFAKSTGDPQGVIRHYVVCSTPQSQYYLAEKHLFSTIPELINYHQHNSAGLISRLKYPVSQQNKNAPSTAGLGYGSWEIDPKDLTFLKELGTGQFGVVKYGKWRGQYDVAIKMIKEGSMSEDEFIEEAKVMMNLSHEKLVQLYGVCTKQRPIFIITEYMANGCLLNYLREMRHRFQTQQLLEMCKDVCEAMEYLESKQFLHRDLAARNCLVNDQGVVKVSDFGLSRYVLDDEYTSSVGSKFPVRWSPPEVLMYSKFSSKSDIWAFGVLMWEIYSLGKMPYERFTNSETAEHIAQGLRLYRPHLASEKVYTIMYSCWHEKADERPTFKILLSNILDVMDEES

Q: For C=CC(=O)N(C)CCOc1c(N)ncnc1-c1cc(F)cc(NC(=O)c2ccc(C3CC3)cc2F)c1C [Compound of Formula (I), N-(3-(6-Amino-5-(2-(N-methylacrylamido)ethoxy)pyrimidin-4-yl)-5-fluoro-2-methylphenyl)-4-cyclopropyl-2-fluorobenzamide], which “reduction of CD63 up-regulation” value ([1]; 10 mg q.d., as restated) is on record?
A: Its value is over 80%.

Q: What about the “inhibition of CD63 upregulation” value ([1]; 10 mg q.d., day 12 (steady state), 8 h after administration) of the same compound?
A: The value was over 90%.

Q: What about the “maximum trough inhibition of CD203c activation” value ([1]; Day 12, multiple doses) of the same compound?
A: The value was “only achieved with b.i.d. administration of 100 mg and 200 mg”.

Q: What about the “trough level inhibition of CD63” value ([1]; doses ≥50 mg q.d., day 12) of the same compound?
A: The value was over 90%.

Q: What about the “inhibition of ex vivo basophil activation measured by CD63” value ([1]; single dose 60 mg, 24 h post dose) of the same compound?
A: The value was over 89%.

Q: And the “maximum inhibition of CD203c” value ([1]; single dose 200 mg, 24 h post dose)?
A: Its value is about 50%.

Q: What about the “inhibition of ex vivo basophil activation measured by CD63” value ([1]; single doses higher than 60 mg, 24 h post dose) of the same compound?
A: The value was about 100%.

Q: And the “BTK occupancy in blood” value (BTK; 10 mg q.d.)?
A: The value was “nearly complete”.

Q: And the “through BTK occupancy in blood” value (BTK; 10 mg q.d., pre-dose at day 12)?
A: Its value is over 96%.

Q: And the “median BTK turnover T1/2” value (BTK; [4])?
A: The value was “about 48 hours”.

Q: And the “time to refresh BTK protein pool to pre-dose levels” value (BTK; [4])?
A: The value was “about 10 days”.

Q: What about the “duration of BTK occupancy in blood” value (BTK; in vivo) of the same compound?
A: Its value is over 24 h.

Q: And the “time of peak target occupancy post dose” value (BTK; peripheral blood)?
A: The value was 0.5 h.

Q: What about the “BTK occupancy at 24 h” value (BTK; single doses of 15 mg and above) of the same compound?
A: The value was “above 80%”.

Q: What about the “peak target (BTK) occupancy” value (BTK; single doses of 15 mg and above, nearly all subjects) of the same compound?
A: The value was about 100%.

Q: What about the “duration of sustained BTK occupancy” value (BTK; single doses of 30 mg and higher) of the same compound?
A: Its value is over 24 h.

Q: What about the “BTK occupancy (near-complete)” value (BTK; single doses of 30 mg and higher, all subjects) of the same compound?
A: Its value is over 90%.

Q: What about the half-life ([2]; human, blood, oral, single ascending doses, dose-independent, read-out: distribution phase T1/2 (converted)) of the same compound?
A: Its half-life is about 1 h.

Q: And the MRT ([2]; human, blood, oral, single ascending doses, read-out: mean residence time (MRT) in the circulation)?
A: Its MRT is 1 to 5 h.

Q: What about the half-life ([2]; human, blood, oral, single dose 100 mg, read-out: terminal half-life (converted)) of the same compound?
A: The half-life was 4 h.

Q: What about the half-life ([2]; human, blood, oral, single dose 600 mg, read-out: terminal half-life (converted)) of the same compound?
A: Its half-life is 18 h.

Q: And the “oral blood clearance CL/F, estimate across all cohorts” value ([2]; single dose)?
A: The value was “about 383 L/h”.

Q: And the concentration at 0.5 h ([3]; 0.5 hours post dose)?
A: Its concentration at 0.5 h is 49.1 nM.

Q: And the concentration at 5 h ([3]; 5 hours post dose)?
A: The concentration at 5 h was 5.6 nM.
